Values quoted from earlier work in PubChem BioAssay AID1259409 (Chemical Carcinogenesis Research Information System (CCRIS), 2018).

Test system: rodent chemically induced tumor inhibition, incidence and multiplicity
Assay: CCRIS tumor inhibitor studies
Conditions: Dose [Inhibitor]: 0, Route [Inhibitor]: ORAL, Species: RAT

COc1ccc([C@@H]2CC(=O)c3c(O)cc(O[C@@H]4O[C@H](CO[C@@H]5O[C@@H](C)[C@H](O)[C@@H](O)[C@H]5O)[C@@H](O)[C@H](O)[C@H]4O)cc3O2)cc1O
tumour outcome (control, treated, inhibition, significance) (Carcinogen: 4-NITROQUINOLINE-1-OXIDE, 56-57-5, 500 PPM IN DIET FOR 10 WK BEGINNING 1 WK PRIOR TO CARCINOGEN TREATMENT (STUDY DURATION: 32 WK), Strain/Sex: F344/MALE, Target Tissue: Type of Lesion: TONGUE: CARCINOMA, Dose [Carcinogen]: 20 PPM IN DRINKING WATER FOR 8 WK, Promoter: NONE USED): 13/24 (54%), 4/18 (22%), 59%, p<0.05 | tumour outcome (control, treated, inhibition, significance) (Carcinogen: 4-NITROQUINOLINE-1-OXIDE, 56-57-5, 500 PPM IN DIET FOR 10 WK BEGINNING 1 WK PRIOR TO CARCINOGEN TREATMENT (STUDY DURATION: 32 WK), Strain/Sex: F344/MALE, Target Tissue: Type of Lesion: TONGUE: PAPILLOMA, Dose [Carcinogen]: 20 PPM IN DRINKING WATER FOR 8 WK, Promoter: NONE USED): 4/24 (17%), 2/18 (11%), 35%, not significant | tumour outcome (control, treated, inhibition, significance) (Carcinogen: 4-NITROQUINOLINE-1-OXIDE, 56-57-5, 500 PPM IN DIET FOR 22 WK BEGINNING 1 WK POST CARCINOGEN TREATMENT (STUDY DURATION: 32 WK), Strain/Sex: F344/MALE, Target Tissue: Type of Lesion: TONGUE: CARCINOMA, Dose [Carcinogen]: 20 PPM IN DRINKING WATER FOR 8 WK, Promoter: NONE USED): 13/24 (54%), 8/19 (42%), 22%, not significant | tumour outcome (control, treated, inhibition, significance) (Carcinogen: 4-NITROQUINOLINE-1-OXIDE, 56-57-5, 500 PPM IN DIET FOR 22 WK BEGINNING 1 WK POST CARCINOGEN TREATMENT (STUDY DURATION: 32 WK), Strain/Sex: F344/MALE, Target Tissue: Type of Lesion: TONGUE: PAPILLOMA, Dose [Carcinogen]: 20 PPM IN DRINKING WATER FOR 8 WK, Promoter: NONE USED): 4/24 (17%), 1/19 (5%), 71%, not significant | tumour outcome (control, treated, inhibition, significance) (Carcinogen: 4-NITROQUINOLINE-1-OXIDE, 56-57-5, 1000 PPM IN DIET FOR 10 WK BEGINNING 1 WK PRIOR TO CARCINOGEN TREATMENT (STUDY DURATION: 32 WK), Strain/Sex: F344/MALE, Target Tissue: Type of Lesion: TONGUE: PAPILLOMA, Dose [Carcinogen]: 20 PPM IN DRINKING WATER FOR 8 WK, Promoter: NONE USED): 8/17 (47%), 1/19 (5%), 89%, p<0.01 | tumour outcome (control, treated, inhibition, significance) (Carcinogen: 4-NITROQUINOLINE-1-OXIDE, 56-57-5, 1000 PPM IN DIET FOR 10 WK BEGINNING 1 WK PRIOR TO CARCINOGEN TREATMENT (STUDY DURATION: 32 WK), Strain/Sex: R344/MALE, Target Tissue: Type of Lesion: TONGUE: SQUAMOUS CELL CARCINOMA, Dose [Carcinogen]: 20 PPM IN DRINKING WATER FOR 8 WK, Promoter: NONE USED): 11/17 (65%), 3/19 (16%), 75%, p<0.005 | tumour outcome (control, treated, inhibition, significance) (Carcinogen: 4-NITROQUINOLINE-1-OXIDE, 56-57-5, 1000 PPM IN DIET FOR 22 WK BEGINNING 1 WK POST CARCINOGEN TREATMENT (STUDY DURATION: 32 WK), Strain/Sex: F344/MALE, Target Tissue: Type of Lesion: TONGUE: PAPILLOMA, Dose [Carcinogen]: 20 PPM IN DRINKING WATER FOR 8 WK, Promoter: NONE USED): 8/17 (47%), 2/20 (10%), 79%, p<0.05 | tumour outcome (control, treated, inhibition, significance) (Carcinogen: 4-NITROQUINOLINE-1-OXIDE, 56-57-5, 1000 PPM IN DIET FOR 22 WK BEGINNING 1 WK POST CARCINOGEN TREATMENT (STUDY DURATION: 32 WK), Strain/Sex: F344/MALE, Target Tissue: Type of Lesion: TONGUE: SQUAMOUS CELL CARCINOMA, Dose [Carcinogen]: 20 PPM IN DRINKING WATER FOR 8 WK, Promoter: NONE USED): 11/17 (65%), 5/20 (25%), 62%, p<0.05 | tumour outcome (control, treated, inhibition, significance) (Carcinogen: AZOXYMETHANE, 25843-45-2, 0.1% IN DIET FOR 4 WK BEGINNING 1 WK PRIOR TO CARCINOGEN TREATMENT (STUDY DURATION: 32 WK), Strain/Sex: F344/MALE, Target Tissue: Type of Lesion: COLON: ADENOCARCINOMA, Dose [Carcinogen]: 15 MG/KG BW 1/WK FOR 3 WK, Promoter: NONE): 70%, 5%, 93%, p<0.001 | tumour outcome (control, treated, inhibition, significance) (Carcinogen: AZOXYMETHANE, 25843-45-2, 0.1% IN DIET FOR 28 WK BEGINNING 1 WK POST LAST CARCINOGEN DOSE (STUDY DURATION: 32 WK), Strain/Sex: F344/MALE, Target Tissue: Type of Lesion: COLON: ADENOCARCINOMA, Dose [Carcinogen]: 15 MG/KG BW 1/WK FOR 3 WK, Promoter: NONE): 70%, 17%, 76%, p<0.005 | tumour outcome (control, treated, inhibition, significance) (Carcinogen: AZOXYMETHANE, 25843-45-2, 1000 PPM IN DIET FOR 4 WK BEGINNING 1 WK PRIOR TO CARCINOGEN TREATMENT (STUDY DURATION: 32 WK), Strain/Sex: F344/MALE, Target Tissue: Type of Lesion: LARGE INTESTINE: TUMOR, Dose [Carcinogen]: 15 MG/KG BW 1/WK FOR 3 WK, Promoter: NONE USED): 12/17 (71%), 3/19 (16%), 77%, p<0.001 | tumour outcome (control, treated, inhibition, significance) (Carcinogen: AZOXYMETHANE, 25843-45-2, 1000 PPM IN DIET FOR 4 WK BEGINNING 1 WK PRIOR TO CARCINOGEN TREATMENT (STUDY DURATION: 32 WK), Strain/Sex: F344/MALE, Target Tissue: Type of Lesion: SMALL INTESTINE: TUMOR, Dose [Carcinogen]: 15 MG/KG BW 1/WK FOR 3 WK, Promoter: NONE USED): 5/17 (29%), 1/19 (5%), 83%, not significant | tumour outcome (control, treated, inhibition, significance) (Carcinogen: AZOXYMETHANE, 25843-45-2, 1000 PPM IN DIET FOR 28 WK BEGINNING 1 WK POST CARCINOGEN TREATMENT (STUDY DURATION: 32 WK), Strain/Sex: F344/MALE, Target Tissue: Type of Lesion: LARGE INTESTINE: TUMOR, Dose [Carcinogen]: 15 MG/KG BW 1/WK FOR 3 WK, Promoter: NONE USED): 12/17 (71%), 3/20 (15%), 79%, p<0.001
